Data on ten compounds can be found in paper PMC9736855, “Discovery of 3-Amino-1H-pyrazole-Based Kinase Inhibitors to Illuminate the Understudied PCTAIRE Family” (International Journal of Molecular Sciences, 2022).

One test addresses T1, CDK16/Cyclin Y (Homo sapiens, UniProt Q00536).
T1 construct: Full-length kinases were obtained as plasmids cloned in frame with a terminal NanoLuc-fusion; CS1810C178 (CCNY); host or cells: HEK293T
Nature of the test: NanoBRET. To be noted: Figure 7, 11-point dose-response in duplicates; read-out: NanoBRET EC50 ± SEM against CDK16. The format is cell-based. How it is done: Next, to specifically quantify the outcome of the cellular activity of the compounds, a NanoBRET cellular target engagement assay was performed. The determination of the cellular potency on CDK16 correlated well with the corresponding DSF assay data (Figure S2). […] As mentioned before, the exchange from a methyl ester to an iso-propyl or tert-butyl ester led to a higher stabilization of the kinase in the DSF assay, which correlated with an increase in cellular potency as determined in the NanoBRET assay. […] The number of potential off-targets was low with 1 and 2 kinases with ΔTm >5 °C (Figure 4), highlighting these inhibitors for more comprehensive selectivity studied within the CDK and particular the TAIRE subfamily.
(§1) The assay was performed as described previously. In brief: Full-length kinases were obtained as plasmids cloned in frame with a terminal NanoLuc-fusion (Promega, Madison, WI, USA), as specified in table (Table S6). Plasmids were transfected into HEK293T cells using FuGENE HD (Promega, E2312) and proteins were allowed to express for 20h. Serially diluted inhibitor and NanoBRET Kinase Tracer (Promega) at a concentration determined previously as the KD,app (Table S5) were pipetted into white 384-well plates (Greiner 781207) using an Echo acoustic dispenser (Labcyte, San Jose, CA, USA). The corresponding protein-transfected cells were added and reseeded at a density of 2.5 × 10^5 cells/mL after trypsinization and resuspending in Opti-MEM without phenol red (Life Technologies, Carlsbad, CA, USA). The system was allowed to equilibrate for 2 h at 37 °C/5% CO2 prior to BRET measurements. To measure BRET, NanoBRET NanoGlo Substrate + Extracellular NanoLuc Inhibitor (Promega, N2540) was added as per the manufacturer’s protocol, and filtered luminescence was measured on a PHERAstar plate reader (BMG Labtech, Ortenberg, Germany) equipped with a luminescence filter pair (450 nm BP filter (donor) and 610 nm LP filter (acceptor)). Competitive displacement data were then graphed using GraphPad Prism 9 software using a normalized 3-parameter curve fit with the following equation: Y = 100/(1 + 10^(X–LogEC50)).

The target of another test is T2, CDK16 (Homo sapiens, UniProt Q00536).
T2 construct: purchased in-house DSF panel (SGC Frankfurt)
T2 sequence (Q00536 163-478): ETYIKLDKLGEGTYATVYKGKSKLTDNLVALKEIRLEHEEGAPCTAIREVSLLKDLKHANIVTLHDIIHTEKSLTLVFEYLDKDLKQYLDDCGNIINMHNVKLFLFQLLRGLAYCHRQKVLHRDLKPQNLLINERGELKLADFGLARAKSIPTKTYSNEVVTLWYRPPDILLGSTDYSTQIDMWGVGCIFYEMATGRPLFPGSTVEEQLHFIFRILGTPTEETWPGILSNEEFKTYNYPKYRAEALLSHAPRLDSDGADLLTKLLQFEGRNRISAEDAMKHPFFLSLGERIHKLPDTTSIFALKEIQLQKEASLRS
Briefly: DSF. To be noted: 10 μM compound. The format is binding. The text has this:
(§2) To investigate the selectivity profile of the different series, a differential scanning fluorimetry (DSF) assay was used. This assay offers a rapid and sensitive screening method that determines the denaturation temperature of a protein in absence and presence of a compound. This assay format measures the fluorescence of a dye, which depends on the folding state of the protein. The difference between the melting temperature (ΔTm) in the absence and presence of the compound represents the binding strength to the protein.
(§3) Measurements were performed in duplicates.

In test [1] the target is T3, CDK2 (Homo sapiens, UniProt P24941).
T3 construct: purchased in-house DSF panel (SGC Frankfurt)
Briefly: DSF. The format is binding. To be noted: 10 μM compound.
Excerpt: as §2, §3

For another test, the system named is CDK16 and GSK3. Nature of the test: proteome-wide CETSA MS. The format is cell-based. To be noted: K562 cells, 30 µM, 60 min. How it is done:
To verify whether the substances also lead to stabilization of proteins in the cellular system, proteome-wide CETSA experiments were performed. Therefore, lead structure 1 and some compounds from the second series (21b, 21d, 21e, 21h, and 21i) were selected for this study (Figure 6, Figure S1). While the statistical significance is plotted on the Y-axis, the relative protein amount is shown on the X-axis. […] Based on excellent proteome-wide selectivity identifying CDK16 and GSK3 as the most prominently stabilized kinases, 21d and 21i were selected for further investigations. […] We therefore decided to proceed with a CDK16-specific cellular assay.
Compressed CETSA MS assays, also known as PISA (Proteome Integral Stability Alteration assay), were performed as previously described by Chernobrovkin et. al., with some minor changes. K562 cells were obtained from ATCC. K562 cells were mixed with an equal volume of compound solution, final concentartion of 30 µM, in a buffer (20 mM HEPES, 138 mM NaCl, 5 mM KCl, 2 mM CaCl2, 1 mM MgCl2, pH 7.4). One percent and DMSO was used as a control. Cells were incubated at +37 °C for 60 min. The cell suspension was split into 12 aliquots which were heated at a different temperature between 44 and 66 °C for 3 min. After the heating, the cells were lysed through freeze–thawing them 3 times and the lysed aliquots were pooled together. Cell debris and aggregates were removed through centrifugation (20 min at 30.000× g).

In test [2] the target is T4, GSK3B (Homo sapiens, UniProt P49841). Briefly: DSF. The format is binding. More on the design: purchased in-house DSF panel (SGC Frankfurt). To be noted: 10 μM compound.
Excerpt: as §2, §3
Target sequence in this assay (P49841 35-386): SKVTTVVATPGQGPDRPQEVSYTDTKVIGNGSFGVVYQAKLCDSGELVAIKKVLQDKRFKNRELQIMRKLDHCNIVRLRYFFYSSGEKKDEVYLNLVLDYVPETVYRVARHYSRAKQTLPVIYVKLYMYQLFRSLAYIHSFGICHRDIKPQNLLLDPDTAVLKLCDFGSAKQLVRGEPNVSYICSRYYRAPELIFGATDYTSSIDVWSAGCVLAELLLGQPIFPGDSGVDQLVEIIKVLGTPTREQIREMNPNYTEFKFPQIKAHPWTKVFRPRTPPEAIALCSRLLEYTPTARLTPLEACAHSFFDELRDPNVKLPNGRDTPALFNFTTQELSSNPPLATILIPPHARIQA

The subject of test [3] is in-house panel of 89–105 kinases. Briefly: DSF selectivity screen. To be noted: number of kinases of the DSF panel. The format is binding.
Excerpt: To investigate the selectivity profile of the different series, a differential scanning fluorimetry (DSF) assay was used. This assay offers a rapid and sensitive screening method that determines the denaturation temperature of a protein in absence and presence of a compound. This assay format measures the fluorescence of a dye, which depends on the folding state of the protein. The difference between the melting temperature (ΔTm) in the absence and presence of the compound represents the binding strength to the protein. We used an in-house panel of 89–105 kinases to screen all synthesized inhibitors (Tables S1–S3).
as §3

For a further test, the system named is HCT116-FUCCI cells. Nature of the test: FUCCI cell cycle assay and viability assessment. The format is cell-based. To be noted: 1, 5, 10 µM (milciclib 1, 10 µM), 24 h. Here is the method:
This technology enables the detection of cell cycle states (G1, G2/M, or S phase) on a single cell level. Additionally, a viability assessment, as described by Tjaden et. al., was performed using Hoechst33342 as a nuclear marker. […] At 10 µM of the same compound, the pyknosed nuclei rate was even higher, on average 45% (Figure 9C). An increase in cells including a pyknosed nucleus indicate apoptotic cell death, due to typical morphological changes like DNA condensation. […] Milciclib is a published CDK2 inhibitor and was used as a reference compound [55]. […] At later time points, the G2/M phase arrest was no longer detectable (Table S7). This can be explained due to the increasing amount of apoptotic cells.
To validate the influence of the compounds on the cell cycle, a florescent ubiquitination-based cell cycle indicator (FUCCI) assay was performed as described previously. In Brief, HCT116-FUCCI cells, stably expressing the FUCCI system, introduced by the Sleeping Beauty transposon system, were seeded at a density of 1250 cells per well in a 384 well plate (Cell culture microplate, PS, f-bottom, µClear®, 781091, Greiner, Frickenhausen, Germany) in culture medium (50 µL per well) and stained additionally with 60 nM Hoechst33342 (Thermo Scientific). Fluorescence and cellular shape were measured before and after compound treatment for 72 h every 12 h using the CQ1 high-content confocal microscope (Yokogawa, Tokyo, Japan). Compounds were added directly to the cells at three different concentrations (1 µM, 5 µM and 10 µM). The following parameters were used for image acquisition: Ex 405 nm/Em 447/60 nm, 500ms, 50%; Ex 561 nm/Em 617/73 nm, 100 ms, 40%; Ex 488/Em 525/50 nm, 50 ms, 40%; Ex 640 nm/Em 685/40, 50 ms, 20 %; bright field, 300ms, 100% transmission, one centered field per well, 7 z stacks per well with 55 µm spacing. Analysis of images was performed using the CellPathfinder software (Yokogawa). The cell count was normalized against the cell count of cells treated with 0.1% DMSO. All normal gated cells were further classified in cells containing healthy, fragmented or pyknosed nuclei. […] Error bars show SEM of biological duplicates. All data can be found in Table S7.

Another test has as its system 359 wild-type kinases. Further details: method as in PMID 19053485. To be noted: kinome-wide screen; cited from earlier work.
The target of test [4] is T4, GSK3B. Briefly: NanoBRET. The format is cell-based. More on the design: Full-length kinases were obtained as plasmids cloned in frame with a terminal NanoLuc-fusion; host or cells: HEK293T. Here is the method: as §1, with “Competitive displacement data were then graphed using GraphPad Prism 9 software using a normalized 3-parameter curve fit with the following equation: Y = 100/(1 + 10^(X–LogEC50)).” left out
Target sequence in this assay (P49841 whole entry): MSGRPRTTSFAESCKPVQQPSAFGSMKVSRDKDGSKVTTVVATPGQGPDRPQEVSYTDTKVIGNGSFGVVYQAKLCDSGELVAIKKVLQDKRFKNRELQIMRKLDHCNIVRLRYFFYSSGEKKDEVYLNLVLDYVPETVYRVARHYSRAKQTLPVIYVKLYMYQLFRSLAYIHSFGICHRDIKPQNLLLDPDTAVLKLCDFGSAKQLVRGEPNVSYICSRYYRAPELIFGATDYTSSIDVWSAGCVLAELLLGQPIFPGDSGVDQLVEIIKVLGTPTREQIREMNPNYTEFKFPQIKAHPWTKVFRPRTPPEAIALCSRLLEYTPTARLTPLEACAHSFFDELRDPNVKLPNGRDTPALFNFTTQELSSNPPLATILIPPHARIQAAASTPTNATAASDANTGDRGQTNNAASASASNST

A further test concerns CDK5. To be noted: cited from earlier work.
The target of test [5] is T3, CDK2. To be noted: cited from earlier work.

T1 sequence (Q00536 whole entry, the tested form may be a part): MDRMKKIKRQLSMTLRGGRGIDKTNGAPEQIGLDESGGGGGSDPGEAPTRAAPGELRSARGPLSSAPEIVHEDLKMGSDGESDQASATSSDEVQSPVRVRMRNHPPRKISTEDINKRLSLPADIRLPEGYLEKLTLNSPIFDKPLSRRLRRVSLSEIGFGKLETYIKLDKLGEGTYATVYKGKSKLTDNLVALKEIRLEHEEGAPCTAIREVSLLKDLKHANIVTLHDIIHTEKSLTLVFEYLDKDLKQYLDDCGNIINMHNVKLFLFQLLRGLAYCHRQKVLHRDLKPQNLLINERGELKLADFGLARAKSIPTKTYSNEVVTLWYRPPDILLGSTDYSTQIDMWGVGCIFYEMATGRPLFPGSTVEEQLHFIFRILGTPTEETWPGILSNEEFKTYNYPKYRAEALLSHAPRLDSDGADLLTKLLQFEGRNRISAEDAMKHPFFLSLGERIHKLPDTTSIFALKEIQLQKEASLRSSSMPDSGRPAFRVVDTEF
T1 sequence (Q8ND76 2-341 partner limits assumed): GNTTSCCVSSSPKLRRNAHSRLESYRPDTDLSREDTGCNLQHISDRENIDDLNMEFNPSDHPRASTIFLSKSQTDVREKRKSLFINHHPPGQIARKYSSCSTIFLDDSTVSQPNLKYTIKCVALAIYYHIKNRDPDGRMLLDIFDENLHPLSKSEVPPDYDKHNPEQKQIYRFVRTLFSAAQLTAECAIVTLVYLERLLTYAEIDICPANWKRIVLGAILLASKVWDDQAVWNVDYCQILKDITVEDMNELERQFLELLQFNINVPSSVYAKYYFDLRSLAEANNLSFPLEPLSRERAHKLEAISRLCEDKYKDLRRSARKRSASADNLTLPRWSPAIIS

`COC(=O)c1cc(Nc2ccnc(Nc3cccc(CCNC(=O)OC(C)(C)C)c3)n2)[nH]n1` [21b, methyl 5-((2-((3-(2-((tert-butoxycarbonyl)amino)ethyl)phenyl)amino)pyrimidin-4-yl)amino)-1H-pyrazole-3-carboxylate]: the EC50 at CDK16/Cyclin Y was determined as 688 ± 22.5 nM. Further, the results for the ΔTm at 10 µM on CDK16, at CDK2 [1] and at GSK3B [2] were 4.9 °C, 4.6 ± 0.1 °C and 8.6 ± 0.2 °C, respectively. In addition, the “stabilization in CETSA MS” value with CDK16 and GSK3 was “stabilization of CDK16 and GSK3”.
As for `COC(=O)c1cc(Nc2ccnc(NCCCCCCNC(=O)OC(C)(C)C)n2)[nH]n1` [21e, methyl 5-((2-((6-((tert-butoxycarbonyl)amino)hexyl)amino)pyrimidin-4-yl)amino)-1H-pyrazole-3-carboxylate], the EC50 on CDK16/Cyclin Y amounted to 152 nM. For the same compound, the figures for the ΔTm at 10 µM at CDK16, on CDK2 [1] and at GSK3B [2] were 8.5 °C, 6.5 ± 0.1 °C and 8.6 ± 0.1 °C, respectively. Also, the “stabilization in CETSA MS” value with CDK16 and GSK3 was “stabilization of CDK16 and GSK3”.
On to `COC(=O)c1cc(Nc2ccnc(Nc3ccc(CC#N)cc3)n2)[nH]n1` [21f, methyl 5-((2-((4-(cyanomethyl)phenyl)amino)pyrimidin-4-yl)amino)-1H-pyrazole-3-carboxylate], for which the EC50 at CDK16/Cyclin Y was determined as 112 ± 8.6 nM. In addition, the “Kinases with shifts > 5°C” value in [3] stood at 27. In addition, the values for the ΔTm at 10 µM on CDK16, at CDK2 [1] and at GSK3B [2] were 5.3 °C, 7.8 °C and 12.3 ± 0.7 °C, respectively.
For the compound `COC(=O)c1cc(Nc2ccnc(Nc3ccc(CNC(=O)OC(C)(C)C)cc3)n2)[nH]n1` [21h, methyl 5-((2-((4-(((tert-butoxycarbonyl)amino)methyl)phenyl)amino)pyrimidin-4-yl)amino)-1H-pyrazole-3-carboxylate], the EC50 on CDK16/Cyclin Y was determined as 391 nM. Further, the “Kinases with shifts > 5°C” value in test [3] is listed as 4–9. Further, the ΔTm at 10 µM at CDK16 was 5.1 ± 0.1 °C; on CDK2 [1], 2.5 ± 0.2 °C; at GSK3B [2], 6 ± 0.3 °C. For the same compound, in the test on CDK16 and GSK3, the “stabilization in CETSA MS” value was “stabilization of CDK16 and GSK3”.
As to `CC(C)OC(=O)c1cc(Nc2ccnc(NCCCCCNC(=O)OC(C)(C)C)n2)n[nH]1` [42b, isopropyl 3-((2-((5-((tert-butoxycarbonyl)amino)pentyl)amino)pyrimidin-4-yl)amino)-1H-pyrazole-5-carboxylate], on CDK16/Cyclin Y, the EC50 is 54 ± 1.8 nM. In addition, the “Kinases with shifts > 5°C” value in test [3] is 7–10. Moreover, the ΔTm at 10 µM on CDK16 is 9.1 ± 0.1 °C; on CDK2 [1] it was 6.5 °C; on GSK3B [2], 7.8 ± 0.3 °C.
`CC(C)(C)OC(=O)NCCCCCNc1nccc(Nc2cc(C(=O)OC(C)(C)C)[nH]n2)n1` [43b, tert-butyl 3-((2-((5-((tert-butoxycarbonyl)amino)pentyl)amino)pyrimidin-4-yl)amino)-1H-pyrazole-5-carboxylate]: the EC50 on CDK16/Cyclin Y is 76 ± 0.9 nM. Also, the “Kinases with shifts > 5°C” value in [3] is given as 7–10. Besides, the ΔTm at 10 µM worked out at 9.3 ± 0.1 °C on CDK16, 6.5 ± 0.1 °C on CDK2 [1] and 6.6 ± 0.1 °C at GSK3B [2].
As to `CNC(=O)c1nn(C)c2c1C(C)(C)Cc1cnc(Nc3ccc(N4CCN(C)CC4)cc3)nc1-2` [Milciclib, reference compound], the “effect on the cell cycle (FUCCI)” value in the test on HCT116-FUCCI cells is reported as “G1 cell cycle arrest”.
As to `N#CCc1ccc(Nc2nc(Nc3cc(C4CC4)[nH]n3)c3ccccc3n2)cc1` [compound 3], in the test with 359 wild-type kinases, the “number of kinases targeted of 359 wild-type kinases” value is recorded as 317.
With `COC(=O)c1cc(Nc2ccnc(Nc3ccc(CCN)cc3)n2)n[nH]1` [compound 24, methyl 3-((2-((4-(2-aminoethyl)phenyl)amino)pyrimidin-4-yl)amino)-1H-pyrazole-5-carboxylate], the EC50 at CDK16/Cyclin Y amounted to 2830 ± 544 nM; at GSK3B [4], 18000 nM. Moreover, the ΔTm at 10 µM was found to be 2.4 ± 0.1 °C at CDK16, 3 °C on CDK2 [1] and 9.5 °C at GSK3B [2].
Take `Cc1cc(Nc2cc(N3CCN(C)CC3)nc(Sc3ccc(NC(=O)C4CC4)cc3)n2)[nH]n1` [tozasertib]: the “affinity for CDK5” value with CDK5 is recorded as “no affinity”. For the same compound, the “affinity for CDK2” value at CDK2 [5] is listed as “no affinity”.
